Results on 24 molecules are retold here after patent US10660877B2 (BRISTOL-MYERS SQUIBB COMPANY, priority 2016, dated 2020).

For one assay, the target named is human TLR9 (Homo sapiens (Human), UniProt Q9NR96). In words: TLR9 inhibition reporter assay (HEK-Blue cells, SEAP reporter, ODN2006 stimulation).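 Note: compounds tested over 0.05 nM to 50 µM, 22 h incubation, inhibition taken as SEAP signal drop from agonist plus DMSO wells toward a known inhibitor control.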
The next assay has as its target human TLR8 (Homo sapiens (Human), UniProt Q9NR97). The experiment in a line: TLR8 inhibition reporter assay (HEK-Blue cells, SEAP reporter, R848 stimulation). (A reporter such as luciferase makes a cellular process visible.);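 note: compounds tested from 0.05 nM to 50 µM, 22 h at 37 °C, SEAP measured with HEK-Blue Detection, inhibition relative to agonist plus DMSO versus a known inhibitor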
Another assay has as its target human TLR7 (Homo sapiens (Human), UniProt Q9NYK1). In words: TLR7 inhibition reporter assay (HEK-Blue cells, SEAP reporter, gardiquimod stimulation). It is filed as cell-based. The settings on record: HEK-Blue cells overexpressing human TLR7, gardiquimod 7.5 μM.
Setting [1] is: read-out: TLR9 IC50, HEK-Blue cells overexpressing human TLR9, ODN2006 5 nM.
The mark [2] stands for this setting: read-out: TLR8 IC50, HEK-Blue cells overexpressing human TLR8, R848 15.9 μM.
Setting [3] is: TLR9 IC50, HEK-Blue cells overexpressing human TLR9, ODN2006 5 nM.
Setting [4] is: TLR8 IC50, HEK-Blue cells overexpressing human TLR8, R848 15.9 μM.

Where two headings read alike, the source gives them in different places.

human TLR9, sequence (Q9NR96 26-1032): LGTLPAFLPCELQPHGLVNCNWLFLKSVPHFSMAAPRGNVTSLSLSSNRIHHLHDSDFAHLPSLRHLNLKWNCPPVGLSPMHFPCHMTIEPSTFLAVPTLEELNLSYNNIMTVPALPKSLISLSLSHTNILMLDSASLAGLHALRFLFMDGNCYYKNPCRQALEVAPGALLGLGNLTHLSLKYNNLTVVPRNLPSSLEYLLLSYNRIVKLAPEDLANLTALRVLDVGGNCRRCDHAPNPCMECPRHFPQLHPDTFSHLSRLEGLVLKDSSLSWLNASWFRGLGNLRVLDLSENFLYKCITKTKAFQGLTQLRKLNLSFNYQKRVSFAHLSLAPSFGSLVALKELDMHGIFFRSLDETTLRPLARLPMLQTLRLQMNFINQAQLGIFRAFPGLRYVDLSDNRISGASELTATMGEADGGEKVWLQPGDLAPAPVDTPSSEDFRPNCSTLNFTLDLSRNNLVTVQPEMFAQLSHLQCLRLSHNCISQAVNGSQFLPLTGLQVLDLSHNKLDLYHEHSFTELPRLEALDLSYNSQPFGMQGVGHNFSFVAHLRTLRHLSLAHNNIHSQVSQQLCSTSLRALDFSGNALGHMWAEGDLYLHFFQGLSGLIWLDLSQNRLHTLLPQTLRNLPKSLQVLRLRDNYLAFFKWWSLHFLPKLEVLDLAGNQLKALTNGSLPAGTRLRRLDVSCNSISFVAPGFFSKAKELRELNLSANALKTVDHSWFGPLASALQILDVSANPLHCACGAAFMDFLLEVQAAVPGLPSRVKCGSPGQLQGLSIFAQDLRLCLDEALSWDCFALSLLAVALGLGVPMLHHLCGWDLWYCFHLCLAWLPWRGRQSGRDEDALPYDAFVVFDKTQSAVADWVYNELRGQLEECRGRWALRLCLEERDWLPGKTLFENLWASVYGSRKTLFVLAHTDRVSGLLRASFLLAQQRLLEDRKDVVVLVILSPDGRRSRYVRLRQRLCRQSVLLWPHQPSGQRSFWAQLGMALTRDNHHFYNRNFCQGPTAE
human TLR8, sequence (Q9NR97 27-1041): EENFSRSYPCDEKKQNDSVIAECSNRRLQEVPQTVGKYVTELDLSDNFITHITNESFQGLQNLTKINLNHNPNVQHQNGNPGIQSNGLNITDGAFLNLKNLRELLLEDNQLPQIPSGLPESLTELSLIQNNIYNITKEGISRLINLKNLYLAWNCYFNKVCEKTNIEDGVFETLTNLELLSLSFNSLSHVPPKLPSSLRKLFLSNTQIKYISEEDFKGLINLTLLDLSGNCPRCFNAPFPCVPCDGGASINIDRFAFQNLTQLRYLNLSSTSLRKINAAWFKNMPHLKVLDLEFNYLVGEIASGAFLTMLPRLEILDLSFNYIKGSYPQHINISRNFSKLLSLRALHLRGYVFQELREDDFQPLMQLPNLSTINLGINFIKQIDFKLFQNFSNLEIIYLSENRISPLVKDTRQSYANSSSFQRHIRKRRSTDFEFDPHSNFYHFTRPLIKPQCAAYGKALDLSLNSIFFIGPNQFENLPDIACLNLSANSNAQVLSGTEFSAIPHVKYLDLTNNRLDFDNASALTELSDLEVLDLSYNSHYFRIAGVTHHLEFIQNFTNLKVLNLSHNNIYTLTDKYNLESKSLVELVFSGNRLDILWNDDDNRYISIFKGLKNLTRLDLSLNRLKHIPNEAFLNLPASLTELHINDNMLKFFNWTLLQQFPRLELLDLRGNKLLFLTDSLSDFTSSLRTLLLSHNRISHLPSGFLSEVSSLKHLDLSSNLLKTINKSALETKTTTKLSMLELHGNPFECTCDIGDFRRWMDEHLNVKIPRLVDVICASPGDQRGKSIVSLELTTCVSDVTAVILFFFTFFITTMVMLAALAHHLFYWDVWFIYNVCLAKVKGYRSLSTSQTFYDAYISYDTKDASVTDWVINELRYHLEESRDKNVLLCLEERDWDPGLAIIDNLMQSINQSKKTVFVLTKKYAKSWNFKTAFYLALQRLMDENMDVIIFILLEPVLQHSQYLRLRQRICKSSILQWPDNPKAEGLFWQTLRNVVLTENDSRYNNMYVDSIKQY
human TLR7, sequence (Q9NYK1 27-1049): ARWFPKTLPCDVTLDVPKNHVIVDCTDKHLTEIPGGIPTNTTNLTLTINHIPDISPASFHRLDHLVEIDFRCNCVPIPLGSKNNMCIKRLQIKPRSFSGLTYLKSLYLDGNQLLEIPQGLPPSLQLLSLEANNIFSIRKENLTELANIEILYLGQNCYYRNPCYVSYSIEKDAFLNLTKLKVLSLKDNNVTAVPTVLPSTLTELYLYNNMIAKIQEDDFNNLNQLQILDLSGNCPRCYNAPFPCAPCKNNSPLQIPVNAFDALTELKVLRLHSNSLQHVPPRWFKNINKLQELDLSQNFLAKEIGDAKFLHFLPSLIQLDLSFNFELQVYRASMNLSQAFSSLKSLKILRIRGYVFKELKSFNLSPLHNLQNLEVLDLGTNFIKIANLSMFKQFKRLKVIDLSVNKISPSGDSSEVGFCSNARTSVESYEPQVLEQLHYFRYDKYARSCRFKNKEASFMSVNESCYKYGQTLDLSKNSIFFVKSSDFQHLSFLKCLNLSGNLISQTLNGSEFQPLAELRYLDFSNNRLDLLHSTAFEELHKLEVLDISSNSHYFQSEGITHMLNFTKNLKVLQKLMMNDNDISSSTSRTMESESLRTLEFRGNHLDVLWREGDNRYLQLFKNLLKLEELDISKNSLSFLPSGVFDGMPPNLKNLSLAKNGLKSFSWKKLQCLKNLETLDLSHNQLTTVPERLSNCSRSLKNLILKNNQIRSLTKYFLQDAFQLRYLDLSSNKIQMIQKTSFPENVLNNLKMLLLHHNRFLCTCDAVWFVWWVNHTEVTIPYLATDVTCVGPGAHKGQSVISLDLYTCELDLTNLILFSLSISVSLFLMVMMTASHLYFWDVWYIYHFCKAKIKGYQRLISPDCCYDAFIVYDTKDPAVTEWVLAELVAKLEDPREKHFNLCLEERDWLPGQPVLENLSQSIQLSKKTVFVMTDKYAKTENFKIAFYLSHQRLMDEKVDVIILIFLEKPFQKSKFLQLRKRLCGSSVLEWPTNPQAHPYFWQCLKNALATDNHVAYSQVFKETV

`Cc1cc(-c2[nH]c3ccc(C4CCN(CC(=O)N5CCCCC5)CC4)cc3c2C(C)C)cc(C)n1` [Example 241, 2-(4-(2-(2,6-dimethylpyridin-4-yl)-3-isopropyl-1H-indol-5-yl)piperidin-1-yl)-1-(piperidin-1-yl)ethan-1-one]: the IC50 (as a rule, the point on the concentration scale where inhibition reaches its midpoint) at human TLR9 (setting [1]) amounted to 444 nM; at human TLR8 (setting [2]) it was 10.7 nM; against human TLR7, 6.4 nM.

Regarding `Cc1cc(-c2[nH]c3ccc(C4CCN(CC(=O)N5CCCC5)CC4)cc3c2C(C)C)cc(C)n1` [Example 242, 2-(4-(2-(2,6-dimethylpyridin-4-yl)-3-isopropyl-1H-indol-5-yl)piperidin-1-yl)-1-(pyrrolidin-1-yl)ethan-1-one], the IC50 at human TLR9 (setting [1]) was 1020 nM; on human TLR8 (setting [2]), 24.7 nM; against human TLR7, 5.2 nM.

Take `Cc1cc(-c2[nH]c3ccc(C4CCN(CC(=O)NC5(C)CCC5)CC4)cc3c2C(C)C)cc(C)n1` [Example 243, 2-(4-(2-(2,6-dimethylpyridin-4-yl)-3-isopropyl-1H-indol-5-yl)piperidin-1-yl)-N-(1-methylcyclobutyl)acetamide]: the IC50 came out at 817 nM on human TLR9 (setting [1]), 20 nM at human TLR8 (setting [2]) and 10 nM against human TLR7.

Turning to `Cc1cc(-c2[nH]c3ccc(C4CCN(CC(=O)N(C)C(C)C)CC4)cc3c2C(C)C)cc(C)n1` [Example 244, 2-(4-(2-(2,6-dimethylpyridin-4-yl)-3-isopropyl-1H-indol-5-yl)piperidin-1-yl)-N-isopropyl-N-methylacetamide], the IC50 against human TLR9 (setting [3]) came to 990 nM; at human TLR8 (setting [4]), 20.3 nM; at human TLR7, 8.2 nM.

In the case of `Cc1cc(-c2[nH]c3ccc(C4CCN(CC(=O)N(C)CC(C)C)CC4)cc3c2C(C)C)cc(C)n1` [Example 245, 2-(4-(2-(2,6-dimethylpyridin-4-yl)-3-isopropyl-1H-indol-5-yl)piperidin-1-yl)-N-isobutyl-N-methylacetamide], the IC50 on human TLR9 (setting [1]) stood at 954 nM; at human TLR8 (setting [2]), 32.4 nM; against human TLR7, 9.6 nM.

In the case of `CCN(C)C(=O)CN1CCC(c2ccc3[nH]c(-c4cc(C)nc(C)c4)c(C(C)C)c3c2)CC1` [Example 246, 2-(4-(2-(2,6-dimethylpyridin-4-yl)-3-isopropyl-1H-indol-5-yl)piperidin-1-yl)-N-ethyl-N-methylacetamide], the IC50 was 663 nM at human TLR9 (setting [1]), 5.3 nM on human TLR8 (setting [2]) and 2.6 nM on human TLR7.

Take `Cc1cc(-c2[nH]c3ccc(C4CCN(CC(=O)N(C)CC#N)CC4)cc3c2C(C)C)cc(C)n1` [Example 247, N-(cyanomethyl)-2-(4-(2-(2,6-dimethylpyridin-4-yl)-3-isopropyl-1H-indol-5-yl)piperidin-1-yl)-N-methylacetamide]: the IC50 was determined as 462 nM at human TLR9 (setting [1]), 4 nM at human TLR8 (setting [2]) and 3 nM against human TLR7.

With `Cc1cc(-c2[nH]c3ccc(C4CCN(CC(=O)N(C)C5CC5)CC4)cc3c2C(C)C)cc(C)n1` [Example 248, N-cyclopropyl-2-(4-(2-(2,6-dimethylpyridin-4-yl)-3-isopropyl-1H-indol-5-yl)piperidin-1-yl)-N-methylacetamide], the IC50 was determined as 343 nM at human TLR9 (setting [1]), 10.2 nM at human TLR8 (setting [2]) and 2.3 nM at human TLR7.

`Cc1cc(-c2[nH]c3ccc(C4CCN(CC(=O)N5CCCC(C)(C)C5)CC4)cc3c2C(C)C)cc(C)n1` [Example 249, 1-(3,3-dimethylpiperidin-1-yl)-2-(4-(2-(2,6-dimethylpyridin-4-yl)-3-isopropyl-1H-indol-5-yl)piperidin-1-yl)ethan-1-one]: the figures for the IC50 at human TLR9 (setting [1]), at human TLR8 (setting [2]) and on human TLR7 were 973 nM, 36.3 nM and 15.4 nM, respectively.

Turning to `Cc1cc(-c2[nH]c3ccc(C4CCN(CC(=O)N(C)C(C)(C)C)CC4)cc3c2C(C)C)cc(C)n1` [Example 250, N-(tert-butyl)-2-(4-(2-(2,6-dimethylpyridin-4-yl)-3-isopropyl-1H-indol-5-yl)piperidin-1-yl)-N-methylacetamide], the values for the IC50 on human TLR9 (setting [1]), on human TLR8 (setting [2]) and against human TLR7 were 1200 nM, 36.4 nM and 11.7 nM, respectively.

With `Cc1cc(-c2[nH]c3ccc(C4CCN(CC(=O)NC5(C)CC5)CC4)cc3c2C(C)C)cc(C)n1` [Example 251, 2-(4-(2-(2,6-dimethylpyridin-4-yl)-3-isopropyl-1H-indol-5-yl)piperidin-1-yl)-N-(1-methylcyclopropyl)acetamide], the IC50 on human TLR9 (setting [1]) amounted to 817 nM; at human TLR8 (setting [2]) it was 9 nM; at human TLR7, 4.3 nM.

As to `Cc1cc(-c2[nH]c3ccc(C4CCN(CC(=O)N[C@H](C)C(F)(F)F)CC4)cc3c2C(C)C)cc(C)n1` [Example 252, (R)-2-(4-(2-(2,6-dimethylpyridin-4-yl)-3-isopropyl-1H-indol-5-yl)piperidin-1-yl)-N-(1,1,1-trifluoropropan-2-yl)acetamide], the values for the IC50 at human TLR9 (setting [1]), at human TLR8 (setting [2]) and against human TLR7 were 1810 nM, 24.4 nM and 8.3 nM, respectively.

For the molecule `Cc1cc(-c2[nH]c3ccc(C4CCN(CC(=O)N(C(C)C)C(C)C)CC4)cc3c2C(C)C)cc(C)n1` [Example 253, 2-(4-(2-(2,6-dimethylpyridin-4-yl)-3-isopropyl-1H-indol-5-yl)piperidin-1-yl)-N,N-diisopropylacetamide], the IC50 on human TLR9 (setting [1]) turned out to be 1340 nM; at human TLR8 (setting [2]) it was 37.1 nM; on human TLR7 it was 19.7 nM.

In the case of `Cc1cc(-c2[nH]c3ccc(C4CCN(CC(=O)NCC5(C)CC5)CC4)cc3c2C(C)C)cc(C)n1` [Example 255, 2-(4-(2-(2,6-dimethylpyridin-4-yl)-3-isopropyl-1H-indol-5-yl)piperidin-1-yl)-N-((1-methylcyclopropyl)methyl)acetamide], the IC50 at human TLR9 (setting [1]) was 654 nM; on human TLR8 (setting [2]), 20.4 nM; on human TLR7 it was 6.9 nM.

For `Cc1cc(-c2[nH]c3ccc(C4CCN(CC(=O)N5CC6(COC6)C5)CC4)cc3c2C(C)C)cc(C)n1` [Example 256, 2-(4-(2-(2,6-dimethylpyridin-4-yl)-3-isopropyl-1H-indol-5-yl)piperidin-1-yl)-1-(2-oxa-6-azaspiro[3.3]heptan-6-yl)ethan-1-one], the IC50 on human TLR9 (setting [1]) was determined as 403 nM; at human TLR8 (setting [2]), 9.2 nM; against human TLR7 it was 4.4 nM.

Consider `Cc1cc(-c2[nH]c3ccc(C4CCN(CC(=O)N5CCC(F)(F)CC5)CC4)cc3c2C(C)C)cc(C)n1` [Example 257, 1-(4,4-difluoropiperidin-1-yl)-2-(4-(2-(2,6-dimethylpyridin-4-yl)-3-isopropyl-1H-indol-5-yl)piperidin-1-yl)ethan-1-one], for which the IC50 at human TLR9 (setting [1]) amounted to 607 nM; on human TLR8 (setting [2]), 13.8 nM; against human TLR7, 9.8 nM.

Consider `Cc1cc(-c2[nH]c3ccc(C4CCN(CC(=O)N5CCCC(F)C5)CC4)cc3c2C(C)C)cc(C)n1` (stereo not drawn) [Example 258, 2-(4-(2-(2,6-dimethylpyridin-4-yl)-3-isopropyl-1H-indol-5-yl)piperidin-1-yl)-1-(3-fluoropiperidin-1-yl)ethan-1-one], for which the IC50 on human TLR9 (setting [1]) was 903 nM; on human TLR8 (setting [2]) it was 15.6 nM; at human TLR7, 7.6 nM.

Take `Cc1cc(-c2[nH]c3ccc(C4CCN(CC(=O)N5CCCC5C)CC4)cc3c2C(C)C)cc(C)n1` (stereo not drawn) [Example 259, 2-(4-(2-(2,6-dimethylpyridin-4-yl)-3-isopropyl-1H-indol-5-yl)piperidin-1-yl)-1-(2-methylpyrrolidin-1-yl)ethan-1-one]: the IC50 is 483 nM at human TLR9 (setting [3]), 12.2 nM on human TLR8 (setting [4]) and 4.5 nM at human TLR7.

Turning to `Cc1cc(-c2[nH]c3ccc(C4CCN(CC(=O)NCC(C)O)CC4)cc3c2C(C)C)cc(C)n1` (stereo not drawn) [Example 260, 2-(4-(2-(2,6-dimethylpyridin-4-yl)-3-isopropyl-1H-indol-5-yl)piperidin-1-yl)-N-(2-hydroxypropyl) acetamide], the IC50 at human TLR9 (setting [1]) stood at 379 nM; on human TLR8 (setting [2]), 5.1 nM; against human TLR7, 1.5 nM.

Consider `Cc1cc(-c2[nH]c3ccc(C4CCN(CC(=O)N5C(C)CCC5C)CC4)cc3c2C(C)C)cc(C)n1` (stereo not drawn) [Example 261, 2-(4-(2-(2,6-dimethylpyridin-4-yl)-3-isopropyl-1H-indol-5-yl)piperidin-1-yl)-1-(2,5-dimethylpyrrolidin-1-yl)ethan-1-one], for which the IC50 at human TLR9 (setting [1]) amounted to 451 nM; on human TLR8 (setting [2]) it was 22.3 nM; against human TLR7 it was 5.7 nM.

On to `Cc1cc(-c2[nH]c3ccc(C4CCN(CC(=O)NCCC(C)O)CC4)cc3c2C(C)C)cc(C)n1` (stereo not drawn) [Example 262, 2-(4-(2-(2,6-dimethylpyridin-4-yl)-3-isopropyl-1H-indol-5-yl)piperidin-1-yl)-N-(3-hydroxybutyl)acetamide], for which the values for the IC50 on human TLR9 (setting [1]), at human TLR8 (setting [2]) and against human TLR7 were 715 nM, 6 nM and 2 nM, respectively.

For `COC[C@@H]1CCCN1C(=O)CN1CCC(c2ccc3[nH]c(-c4cc(C)nc(C)c4)c(C(C)C)c3c2)CC1` [Example 263, (S)-2-(4-(2-(2,6-dimethylpyridin-4-yl)-3-isopropyl-1H-indol-5-yl)piperidin-1-yl)-1-(2-(methoxymethyl)pyrrolidin-1-yl)ethan-1-one], the IC50 on human TLR9 (setting [1]) was found to be 279 nM; at human TLR8 (setting [2]), 13.6 nM; on human TLR7 it was 3.7 nM.

Turning to `COCCN1CCN(C(=O)CN2CCC(c3ccc4[nH]c(-c5cc(C)nc(C)c5)c(C(C)C)c4c3)CC2)CC1` [Example 265, 2-(4-(2-(2,6-dimethylpyridin-4-yl)-3-isopropyl-1H-indol-5-yl)piperidin-1-yl)-1-(4-(2-methoxyethyl)piperazin-1-yl)ethan-1-one], the values for the IC50 on human TLR9 (setting [1]), on human TLR8 (setting [2]) and at human TLR7 were 73 nM, 2.8 nM and 1.5 nM, respectively.

For the molecule `Cc1cc(-c2[nH]c3ccc(C4CCN(CC(=O)NCC5CCCO5)CC4)cc3c2C(C)C)cc(C)n1` (stereo not drawn) [Example 266, 2-(4-(2-(2,6-dimethylpyridin-4-yl)-3-isopropyl-1H-indol-5-yl)piperidin-1-yl)-N-((tetrahydrofuran-2-yl)methyl)acetamide], the IC50 is 522 nM on human TLR9 (setting [1]), 10.8 nM on human TLR8 (setting [2]) and 3.2 nM at human TLR7.
